# Biological target: Steroidogenic factor 1 (Homo sapiens, UniProt Q13285)
# Test: blockers of SF-1 LBD reporter transcription – cell-based, CHO-K1, Gal4-SF-1 LBD, luciferase luminescence, dose response (AID 600)
# Sequence of Steroidogenic factor 1 (Q13285 whole entry, the tested form may be a part): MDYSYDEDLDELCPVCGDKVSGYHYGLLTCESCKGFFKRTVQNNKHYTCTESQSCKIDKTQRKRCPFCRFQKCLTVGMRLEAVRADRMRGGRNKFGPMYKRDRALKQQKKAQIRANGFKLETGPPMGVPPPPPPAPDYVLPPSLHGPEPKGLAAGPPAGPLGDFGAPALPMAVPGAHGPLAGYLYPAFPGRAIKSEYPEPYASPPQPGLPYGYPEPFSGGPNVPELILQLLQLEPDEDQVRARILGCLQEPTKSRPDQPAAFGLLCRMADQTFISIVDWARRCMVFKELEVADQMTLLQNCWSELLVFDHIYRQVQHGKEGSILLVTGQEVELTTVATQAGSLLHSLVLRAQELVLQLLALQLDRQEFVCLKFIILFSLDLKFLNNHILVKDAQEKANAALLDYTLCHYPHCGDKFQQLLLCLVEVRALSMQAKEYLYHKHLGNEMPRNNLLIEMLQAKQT
row,IC50 [µM],Structure (SMILES)
1,2.1,COc1nc(Nc2nc(O)c3ccccc3n2)nc2ccc(C)cc12 [SMR000108404]
2,0.315,"CCOC(=O)C(C)Oc1cccc2c(=O)n(CC(=O)NCc3ccc4c(c3)OCO4)ccc12 (stereo unspecified) [ethyl 2-[(2-{[(2H-1,3-benzodioxol-5-ylmethyl)carbamoyl]methyl}-1-oxo-1,2-dihydroisoquinolin-5-yl)oxy]propanoate]"
3,23.5,"CCOC(=O)C1C(Cn2cnc3ccccc32)=NC(=O)NC1c1cc(C)ccc1C (stereo unspecified) [ethyl 6-(benzimidazol-1-ylmethyl)-4-(2,5-dimethylphenyl)-2-oxidanylidene-3,4-dihydro-1H-pyrimidine-5-carboxylate]"
4,4.69,"COC(=O)/C(=C1/Oc2cc(C)oc(=O)c2S1)C(F)(F)F [methyl (2E)-3,3,3-tris(fluoranyl)-2-(6-methyl-4-oxidanylidene-[1,3]oxathiolo[4,5-c]pyran-2-ylidene)propanoate]"
5,> 1.22,"CCCCCOC(=O)c1[nH]c2c(c1C)C(=O)CC(c1ccco1)C2 (stereo unspecified) [pentyl 6-(furan-2-yl)-3-methyl-4-oxidanylidene-1,5,6,7-tetrahydroindole-2-carboxylate]"

row,Structure (SMILES),IC50 [µM]
1,COc1cc([C@@H]2c3cc4c(cc3[C@H](O)[C@H]3COC(=O)[C@H]23)OCO4)cc(OC)c1OC [podophyllotoxin],0.0454
